Data as given in US20140309291A1, “Compositions and Methods for Increasing Stress Resilience” (The Children's Hospital of Philadelphia, priority 2011, published 2014).

Columns and labels:
S1P3 receptor = S1P3 receptor (Homo sapiens, UniProt Q99500); settings: multiple Sph receptors, including the S1P3 receptor; cited from earlier work
[1] = social defeat paradigm (defeat latency); assay type: in vivo, rats; settings: SL (short latency, vulnerable) animals; drug given 1 hour prior to social defeat stress on 3 days following 7 days of defeat; p=0.0726 (FIG. 2A)
Excerpt: The social defeat paradigm used in these studies was modified from the resident-intruder model (Miczek, K. A. (1979) Psychopharmacology (Berl) 60:253-259). Rats were randomly assigned to either a social defeat or control group for a consecutive 7 days (Bhatnagar et al. (2006) J. Neuroendocrinol., 18:13-24; Buwalda et al. (1999) J. Neuroendocrinol., 11:513-520). During each episode of social stress, a rat was placed into the home cage territory of an unfamiliar Long-Evans resident previously screened for high aggression (Bhatnagar et al. (2006) J. Neuroendocrinol., 18:13-24; Buwalda et al. (1999) J. Neuroendocrinol., 11:513-520). […] After defeat, a wire mesh enclosure was placed in the cage to prevent physical contact between the resident and intruder but allowing visual, auditory, and olfactory contact for the remainder of the 30-minute defeat session. Latency to assume a submissive posture (defeat) was recorded and averaged over the seven daily defeat exposures. […] Rats were returned to their home cage after each session, and body weight was recorded on days 1 and 8. […]
Following 7 days of defeat, the SL and LL groups were divided into two separate treatment groups receiving either vehicle or FTY720, 1 hour prior to social defeat stress on the following 3 days. Defeat latencies were recorded. […]

[2] = social interaction test of anxiety after social defeat stress; assay type: in vivo, rats
Protocol: Animals were exposed to 7 days of social defeat stress. During these 7 days of defeat stress the average latency to defeat was observed. Based on this latency to defeat, animals were either classified as short latency (SL, defeat <300 seconds) or long latency (LL, defeat >300 seconds).
Following 7 days of defeat, the SL and LL groups were divided into two separate treatment groups receiving either vehicle or FTY720, 1 hour prior to social defeat stress on the following 3 days. Defeat latencies were recorded. Additionally, 48 hours following the end of social defeat stress, animals were tested in the social interaction test of anxiety.

S1P3 receptor, sequence (Q99500 whole entry): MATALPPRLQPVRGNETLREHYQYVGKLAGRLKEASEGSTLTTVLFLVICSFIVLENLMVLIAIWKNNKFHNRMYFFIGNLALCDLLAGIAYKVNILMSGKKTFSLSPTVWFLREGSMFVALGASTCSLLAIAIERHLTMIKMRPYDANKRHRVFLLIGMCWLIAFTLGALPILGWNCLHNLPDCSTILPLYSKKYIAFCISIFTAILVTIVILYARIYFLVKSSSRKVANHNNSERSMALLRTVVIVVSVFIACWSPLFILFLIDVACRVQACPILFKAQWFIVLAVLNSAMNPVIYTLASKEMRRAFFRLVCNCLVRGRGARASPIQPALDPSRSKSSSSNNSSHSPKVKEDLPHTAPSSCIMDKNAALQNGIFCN

For CCCCCCCCc1ccc(CCC(N)(CO)CO)cc1 [FTY720], the “agonist activity at Sph receptors” value (S1P3 receptor) is listed as “potent agonist”, the defeat latency [1] is listed as “tended to increase defeat latency of SL animals to the level of LL animals” and the social interaction time ([2]; SL animals, tested 48 hours following the end of social defeat stress, p=0.0049 (FIG. 2B)) is listed as “prevented the decreased interaction time”. For the same molecule, the “effect of the drug in resilient and control animals” value ([2]; resilient LL rats or control rats) was “no effects”.
